Holding throughout (type): cell-based, human
The test system of one assay is PC-3 cells. Briefly: Wound healing migration assay. To be noted: 5 μM, 24 h. As for the experimental part:
Figure 5 Anti-migratory and anti-invasive potential of NRs (A) Effect of NRs treatment (5 μmol/L) on PC-3 cell migration was assessed by wound healing assay after 24 h of wound formation. Representative photomicrographs of initial and final wounds are shown at 100x magnification. (B) Effect of NRs on PC-3 cell invasion was evaluated by transwell migration assay. PC-3 cells were seeded on matrigel coated boyden chamber and treated with NRs (5 μmol/L, 24 h). Photographs represent the extent of cell invasion in each of the treated cells. (C) Western blot analysis of the effect of NRs on the expression of cadherins in PC-3 cells. Cells were treated with indicated compound 20 μmol/L for 24 h. […] For wound healing assay highly metastatic PC-3 cells were plated in a 24 well plate at a seeding density of 5 × 10^5 cells/ well and allowed to form a confluent monolayer for 24 h. Cells were made dormant by pretreating with 0.5 μmol/L mitomycin C for 2 h to ensure that wounds are filled due to cell migration and not by cell proliferation. Subsequently, the monolayer was scratched with a pipette tip, washed with media to remove floating cells, and photographed (time 0 h). Cells were then treated with indicated compounds (5 μM) and the experiment was terminated as soon as wound was completely filled in vehicle treated controls. Cells were then photographed again using Nikon TE2000 microscope at three randomly selected sites per well [43].

The next assay relates to LNCaP cells. Kind of assay: MTT cell viability of LNCaP cells with AR/MNK1 siRNA and VNLG-152. To be noted: untransfected cells, 5 μM, 72 h. From the text: To confirm whether the observed anti-cancer effects of VNLG-152 on PCa cells was primarily due to its inhibitory effects on AR and MNK, we investigated the impact of AR and/or MNK siRNA on the survival of LNCaP cells by MTT assay. […] Co-transfection of LNCaP cells with both AR and MNK1 siRNA (compare lanes 1 and 4) further augmented loss of viability in LNCaP cells.
Figure 6 Effect of siAR, siMNK1 on LNCaP cell viability, and VNLG-152 on key and downstream proteins in LNCaP cells (A) Western blot analysis of the expression of fAR, MNK1 and peIF4E in LNCaP cells transfected with 100 nM of siAR, siMNK1 and combinations for 18 h. (B) Effect of VNLG-152 (5 μmol) on cell proliferation in LNCaP cells transfected with siAR, siMNK1 and combinations as determined by MTT assay. The results represent the mean ± SEM of three independent experiments and are represented as a bar graph after normalizing to control cells. *, P< 0.05; ♣, P<0.01 compared with vehicle treated control. (C) Dose-dependent effect of VNLG-152 on the expression of AR, MNKs, peIF4E and downstream target proteins. Total cell lysate from LNCaP cells treated with VNLG-152 (0 - 20 μmol/L) for 24 h were separated by SDS-PAGE and probed with corresponding antibodies. Vehicle treated cells were included as control and all blots were reprobed for β-actin to ensure equal protein loading. […]

For the next assay, the system named is fAR, MNK1, MNK2, peIF4E. Kind of assay: Western blot of fAR, MNK1, MNK2, peIF4E in VNLG-152 treated LNCaP cells. As for the experimental part:
Figure 6 Effect of siAR, siMNK1 on LNCaP cell viability, and VNLG-152 on key and downstream proteins in LNCaP cells (A) Western blot analysis of the expression of fAR, MNK1 and peIF4E in LNCaP cells transfected with 100 nM of siAR, siMNK1 and combinations for 18 h. (B) Effect of VNLG-152 (5 μmol) on cell proliferation in LNCaP cells transfected with siAR, siMNK1 and combinations as determined by MTT assay. The results represent the mean ± SEM of three independent experiments and are represented as a bar graph after normalizing to control cells. *, P< 0.05; ♣, P<0.01 compared with vehicle treated control. (C) Dose-dependent effect of VNLG-152 on the expression of AR, MNKs, peIF4E and downstream target proteins. Total cell lysate from LNCaP cells treated with VNLG-152 (0 - 20 μmol/L) for 24 h were separated by SDS-PAGE and probed with corresponding antibodies. Vehicle treated cells were included as control and all blots were reprobed for β-actin to ensure equal protein loading.
Figure 7 VNLG-152 induced AR degradation by ubiquitin proteasomal pathway in LNCaP cells (A) Western blot analysis of the expression of fAR in LNCaP cells treated with VNLG-152 (20 μmol/L) in the presence or absence of CHX (10 μmol/L) at 6, 12 and 24 h of treatment. (B) Densitometric analysis of the expression of fAR in different groups *, P< 0.05; ♣, P<0.01 compared with vehicle treated control. (C) Western blot analysis of the expression of fAR in LNCaP cells treated with VNLG-152 (20 μmol/L) in the presence or absence of MG-132 (5 μmol/L). (D) LNCaP cells were treated with 20 μmol/L of VNLG-152, 5 μmol/L of MG-132, and combinations for 24 h. AR protein was immunoprecipitated with AR antibody (mouse) and the precipitated protein was subjected to western blot analysis with anti-ubiquitin antibody (Ub) ([…]). The same blot was used to detect AR protein with anti-AR (rabbit) antibody after stripping (C, lower panel). […]
For orientation: Immunoblotting shows a protein as a band on a membrane.

Molecules are shown by their SMILES.

On to `CC1=C(/C=C/C(C)=C/C=C/C(C)=C/C(=O)Nc2ccc(F)cc2)C(C)(C)CCC1n1ccnc1` (racemic) [VNLG-152], for which the “PC-3 cell migration to the denuded zone” value in the assay with PC-3 cells is on record as “potentially suppressed”. In the assay on LNCaP cells, the LNCaP cell viability entry is listed as “robust reduction”. In addition, the “time by which AR and MNK (MNK1 and MNK2) were profoundly reduced” value in the assay on fAR, MNK1, MNK2, peIF4E (20 μmol/L) is at most 12 h. Besides, in the assay with fAR, MNK1, MNK2, peIF4E (0.6-20 μM, 24 h), the “concentration of maximal effect on MNK2 expression” value amounted to 20 µM; the “concentration with notable decrease in expression of fAR, MNK1 and peIF4E” value is at least 2.5 µM.

For the origin of these results see paper PMC4413647, “Simultaneous targeting of androgen receptor (AR) and MAPK-interacting kinases (MNKs) by novel retinamides inhibits growth of human prostate cancer cell lines” (Oncotarget, 2014).
